Experimental data from PubChem BioAssay AID330 (DTP/NCI, 2004).
“And” between values parts separate entries of the source, which are not always exact repeats. Equal entries are not always repeated. Toxic doses and inconclusive results are not listed.

Tested on: P388 leukemia ip, CD2F1 mice, survival T/C
Test: NCI In Vivo Anticancer Drug Screen. Data for tumor model P388 Leukemia (intraperitoneal) in CD2F1 (CDF1) mice
Conditions: endpoint: median survival time, higher = longer survival
Summary of the method: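 Mice carrying the transplanted tumor received test compound or vehicle. Survival was recorded in each group, and the value is the treated-group measurement divided by that of the vehicle-treated control group.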

[1] = dose: 50.0 mg/kg/injection, schedule: Q01DX009 (ip), vehicle: saline with Tween-80
[2] = dose: 100.0 mg/kg/injection, schedule: Q01DX009 (ip), vehicle: saline with Tween-80
[3] = dose: 200.0 mg/kg/injection, schedule: Q01DX009 (ip), vehicle: saline with Tween-80
[4] = dose: 50.0 mg/kg/injection, schedule: Q01DX005 (ip), vehicle: saline with Tween-80
[5] = dose: 50.0 mg/kg/injection, schedule: Q01DX009 (ip), vehicle: saline
[6] = dose: 100.0 mg/kg/injection, schedule: Q01DX009 (ip), vehicle: saline
[7] = dose: 200.0 mg/kg/injection, schedule: Q01DX009 (ip), vehicle: saline
[8] = dose: 25.0 mg/kg/injection, schedule: Q01DX009 (ip), vehicle: saline with Tween-80
[9] = dose: 100.0 mg/kg/injection, schedule: Q01DX005 (ip), vehicle: saline with Tween-80
[10] = dose: 200.0 mg/kg/injection, schedule: Q01DX005 (ip), vehicle: saline with Tween-80
[11] = dose: 60.0 mg/kg/injection, schedule: Q01DX005 (ip), vehicle: saline with Tween-80
[12] = dose: 50.0 mg/kg/injection, schedule: Q01DX005 (ip), vehicle: Klucel (hydroxypropylcellulose) (HPC)
[13] = dose: 100.0 mg/kg/injection, schedule: Q01DX005 (ip), vehicle: Klucel (hydroxypropylcellulose) (HPC)
[14] = dose: 6.25 mg/kg/injection, schedule: Q01DX009 (ip), vehicle: saline
[15] = dose: 12.5 mg/kg/injection, schedule: Q01DX009 (ip), vehicle: saline
[16] = dose: 120.0 mg/kg/injection, schedule: Q01DX005 (ip), vehicle: saline with Tween-80

CN(CCCCN(C)CCOS(C)(=O)=O)CCOS(C)(=O)=O
T/C (dose: 0.05 mg/kg/injection, schedule: Q01DX009 (ip), vehicle: saline): 157 % of control | T/C (dose: 0.1 mg/kg/injection, schedule: Q01DX009 (ip), vehicle: saline): 178 % of control | T/C (dose: 0.3 mg/kg/injection, schedule: Q01DX009 (ip), vehicle: saline): 156 % of control | T/C (dose: 0.6 mg/kg/injection, schedule: Q01DX009 (ip), vehicle: saline): 156 % of control | T/C (dose: 0.8 mg/kg/injection, schedule: Q04DX003 (ip), vehicle: saline): 168 % of control | T/C (dose: 1.2 mg/kg/injection, schedule: Q04DX003 (ip), vehicle: saline): 172 % of control | T/C (dose: 1.25 mg/kg/injection, schedule: Q01DX009 (ip), vehicle: saline): 230 % of control | T/C (dose: 1.25 mg/kg/injection, schedule: Q04DX003 (ip), vehicle: saline with Tween-80): 180 % of control | T/C (dose: 1.8 mg/kg/injection, schedule: Q04DX003 (ip), vehicle: saline): 181 % of control | T/C (dose: 2.5 mg/kg/injection, schedule: Q04DX003 (ip), vehicle: saline with Tween-80): 176 % of control | T/C (dose: 5.0 mg/kg/injection, schedule: Q04DX003 (ip), vehicle: saline with Tween-80): 200 % of control | T/C (dose: 5.0 mg/kg/injection, schedule: Q04DX003 (ip), vehicle: saline): 204 % of control | T/C (dose: 10.0 mg/kg/injection, schedule: Q04DX003 (ip), vehicle: saline): 86 % of control

Oc1ccc(O)c2nc3ccccc3nc12
T/C (dose: 1.56 mg/kg/injection, schedule: Q01DX009 (ip), vehicle: distilled water + Tween-80): 104 % of control | T/C (dose: 3.12 mg/kg/injection, schedule: Q01DX009 (ip), vehicle: distilled water + Tween-80): 105 % of control | T/C (dose: 6.25 mg/kg/injection, schedule: Q01DX009 (ip), vehicle: distilled water + Tween-80): 104 % of control and 97 % of control

CC(=O)c1ccccc1N=Nc1ccc(N(CCCl)CCCl)cc1
T/C [1]: 108 % of control | T/C [2]: 106 % of control | T/C [3]: 112 % of control

O=[N+]([O-])CC(OCCCCCO)C(Cl)(Cl)Cl (stereo not drawn)
T/C [1]: 95 % of control | T/C [2]: 100 % of control | T/C [3]: 86 % of control

CC1=C(C)C(=O)C(CCl)=[C-]C1=O.[Co].[c-]1[c-][c-][cH-][c-]1
T/C [4]: 123 % of control

Nc1nccc([N+](=O)[O-])n1
T/C [5]: 97 % of control | T/C [6]: 99 % of control | T/C [7]: 100 % of control

Clc1nn2ccnc2c2cccnc12
T/C (dose: 12.5 mg/kg/injection, schedule: Q04DX003 (ip), vehicle: Klucel (hydroxypropylcellulose) (HPC)): 100 % of control | T/C (dose: 25.0 mg/kg/injection, schedule: Q04DX003 (ip), vehicle: Klucel (hydroxypropylcellulose) (HPC)): 103 % of control

O=C1/C(=C/c2ccccc2)CCC/C1=C\c1ccccc1
T/C [8]: 104 % of control | T/C [1]: 104 % of control | T/C [2]: 100 % of control

CSc1nc(SC)c2c(C)cn(C3OC(C)C(O)C(O)C3O)c2n1 (stereo not drawn)
T/C [9]: 94 % of control | T/C [10]: 93 % of control | T/C (dose: 400.0 mg/kg/injection, schedule: Q01DX005 (ip), vehicle: saline with Tween-80): 97 % of control

C(=N[C@H]1CCCC[C@H]1N=Cc1ccccn1)c1ccccn1
T/C [4]: 95 % of control | T/C [9]: 90 % of control | T/C [10]: 101 % of control

CC(=O)N(Cc1ccccc1)c1nccs1
T/C [4]: 104 % of control | T/C [9]: 99 % of control | T/C [10]: 90 % of control

S=C(N/N=C1\CSCc2ccccc21)Nc1cc(Cl)ccc1Cl
T/C (dose: 12.5 mg/kg/injection, schedule: Q01DX009 (ip), vehicle: saline with Tween-80): 87 % of control | T/C [8]: 90 % of control | T/C [1]: 100 % of control

O=C/C=C/c1ccc([N+](=O)[O-])cc1Cl
T/C [8]: 104 % of control | T/C [1]: 106 % of control | T/C [5]: 115 % of control | T/C [2]: 106 % of control | T/C [6]: 124 % of control | T/C [7]: 124 % of control

CC#Cc1ccc(-c2ccccc2)s1
T/C (dose: 1.0 mg/kg/injection, schedule: Q01DX005 (ip), vehicle: Klucel + Tween-80): 96 % of control | T/C (dose: 2.0 mg/kg/injection, schedule: Q01DX005 (ip), vehicle: Klucel + Tween-80): 98 % of control | T/C (dose: 4.0 mg/kg/injection, schedule: Q01DX005 (ip), vehicle: Klucel + Tween-80): 94 % of control | T/C (dose: 8.0 mg/kg/injection, schedule: Q01DX005 (ip), vehicle: Klucel + Tween-80): 93 % of control

CCOC(=O)CC1(O)CS/C(=C(\C#N)C(=O)OCC)S1 (stereo not drawn)
T/C [4]: 102 % of control | T/C [9]: 102 % of control | T/C [10]: 98 % of control

COc1cc(O)c2c(c1)C(=O)C1=C(C2=O)[C@@H](C)OC(C)C1 (stereo partly drawn)
T/C (dose: 15.0 mg/kg/injection, schedule: Q01DX005 (ip), vehicle: saline with Tween-80): 94 % of control | T/C (dose: 30.0 mg/kg/injection, schedule: Q01DX005 (ip), vehicle: saline with Tween-80): 96 % of control | T/C [11]: 88 % of control and 94 % of control

COC1=C(C)C2CC(OC)OC3CC4CCCCC4(C)C(C1=O)C32C (stereo not drawn)
T/C (dose: 25.0 mg/kg/injection, schedule: Q01DX005 (ip), vehicle: Klucel (hydroxypropylcellulose) (HPC)): 105 % of control | T/C [12]: 99 % of control | T/C [13]: 92 % of control

COc1cc(C(=O)Nc2cccc(Cl)c2Cl)cc(OC)c1OC
T/C [12]: 104 % of control | T/C [13]: 96 % of control | T/C (dose: 200.0 mg/kg/injection, schedule: Q01DX005 (ip), vehicle: Klucel (hydroxypropylcellulose) (HPC)): 92 % of control

Cc1c(NC(=S)Nc2c(C(C)C)cccc2C(C)C)c(=O)n(-c2ccccc2)n1C
T/C (dose: 50.0 mg/kg/injection, schedule: Q01DX009 (ip), vehicle: Klucel (hydroxypropylcellulose) (HPC)): 113 % of control | T/C (dose: 100.0 mg/kg/injection, schedule: Q01DX009 (ip), vehicle: Klucel (hydroxypropylcellulose) (HPC)): 106 % of control | T/C (dose: 200.0 mg/kg/injection, schedule: Q01DX009 (ip), vehicle: Klucel (hydroxypropylcellulose) (HPC)): 106 % of control

Cc1ccc(C2=Nc3ccccc3SC(c3cccc([N+](=O)[O-])c3)C2)cc1 (stereo not drawn)
T/C (dose: 3.12 mg/kg/injection, schedule: Q01DX009 (ip), vehicle: saline): 90 % of control | T/C [14]: 97 % of control | T/C [15]: 88 % of control | T/C [5]: 86 % of control

COc1ccc(/C=N/NC(=S)NN)cc1
T/C [11]: 99 % of control | T/C [16]: 100 % of control | T/C (dose: 240.0 mg/kg/injection, schedule: Q01DX005 (ip), vehicle: saline with Tween-80): 98 % of control

Cc1c2ccncc2c(C)c2c1[nH]c1ccc(O)cc12
T/C [14]: 111 % of control | T/C (dose: 6.25 mg/kg/injection, schedule: Q01DX009 (ip), vehicle: suspension in saline): 150 % of control | T/C [15]: 169 % of control | T/C (dose: 12.5 mg/kg/injection, schedule: Q01DX009 (ip), vehicle: suspension in saline): 167 % of control

COC(=O)C1=C/C=C\CN(CCC2OCCO2)/C=C\1C(=O)OC
T/C (dose: 100.0 mg/kg/injection, schedule: Q01DX001 (ip), vehicle: alcohol): 99 % of control | T/C (dose: 200.0 mg/kg/injection, schedule: Q01DX001 (ip), vehicle: alcohol): 100 % of control | T/C (dose: 400.0 mg/kg/injection, schedule: Q01DX001 (ip), vehicle: alcohol): 100 % of control

CN1CCc2nc(N)nc(-c3nc(N)nc4c3CN(C)CC4)c2C1
T/C (dose: 60.0 mg/kg/injection, schedule: Q01DX005 (ip), vehicle: saline): 100 % of control | T/C (dose: 120.0 mg/kg/injection, schedule: Q01DX005 (ip), vehicle: saline): 104 % of control | T/C (dose: 240.0 mg/kg/injection, schedule: Q01DX005 (ip), vehicle: saline): 106 % of control

CN(C)CC1=Nc2cccc3cccc(c23)N1
T/C [11]: 102 % of control | T/C [16]: 106 % of control

Cc1c2c(c(C)c3ccccc13)C(O)C(O)c1ccccc1-2 (stereo not drawn)
T/C (dose: 100.0 mg/kg/injection, schedule: Q01DX001 (ip), vehicle: Klucel (hydroxypropylcellulose) (HPC)): 91 % of control | T/C (dose: 200.0 mg/kg/injection, schedule: Q01DX001 (ip), vehicle: Klucel (hydroxypropylcellulose) (HPC)): 91 % of control | T/C (dose: 400.0 mg/kg/injection, schedule: Q01DX001 (ip), vehicle: Klucel (hydroxypropylcellulose) (HPC)): 99 % of control

C=CCn1nnc(N)n1
T/C (dose: 100.0 mg/kg/injection, schedule: Q04DX003 (ip), vehicle: Klucel (hydroxypropylcellulose) (HPC)): 111 % of control | T/C (dose: 200.0 mg/kg/injection, schedule: Q04DX003 (ip), vehicle: Klucel (hydroxypropylcellulose) (HPC)): 109 % of control | T/C (dose: 400.0 mg/kg/injection, schedule: Q04DX003 (ip), vehicle: Klucel (hydroxypropylcellulose) (HPC)): 105 % of control
